Consider 20 compounds from PubChem BioAssay AID330 (DTP/NCI, 2004).

Where “and” joins values, the source holds several entries; their conditions need not be identical. Equal entries are not always repeated. Inconclusive results and toxic doses are left out.

The subject of this assay is P388 leukemia ip, CD2F1 mice, survival T/C. Briefly: NCI In Vivo Anticancer Drug Screen. Data for tumor model P388 Leukemia (intraperitoneal) in CD2F1 (CDF1) mice. Conditions: endpoint: median survival time, higher = longer survival. In a few lines:
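Mice carrying the transplanted tumor received test compound or vehicle. Survival was recorded in each group, and the value is the treated-group measurement divided by that of the vehicle-treated control group.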

The mark [1] stands for this setting: dose: 50.0 mg/kg/injection, schedule: Q01DX005 (ip), vehicle: Klucel (hydroxypropylcellulose) (HPC).
[2] abbreviates: dose: 50.0 mg/kg/injection, schedule: Q01DX005 (ip), vehicle: saline with Tween-80.
Where [3] appears, read: dose: 100.0 mg/kg/injection, schedule: Q01DX005 (ip), vehicle: saline with Tween-80.
[4] abbreviates: dose: 200.0 mg/kg/injection, schedule: Q01DX005 (ip), vehicle: saline with Tween-80.
Where [5] appears, read: dose: 50.0 mg/kg/injection, schedule: Q01DX009 (ip), vehicle: saline with Tween-80.
Setting [6] is: dose: 100.0 mg/kg/injection, schedule: Q01DX009 (ip), vehicle: saline with Tween-80.
Where [7] appears, read: dose: 60.0 mg/kg/injection, schedule: Q01DX005 (ip), vehicle: saline with Tween-80.
[8] abbreviates: dose: 120.0 mg/kg/injection, schedule: Q01DX005 (ip), vehicle: saline with Tween-80.
Setting [9] is: dose: 240.0 mg/kg/injection, schedule: Q01DX005 (ip), vehicle: saline with Tween-80.

In the case of `COc1ccc2c(c1OC)C[C@@H]1c3c(cc4c(c3-2)OCO4)CCN1C`, the T/C is 117 % of control (dose: 6.25 mg/kg/injection, schedule: Q01DX005 (ip), vehicle: Klucel (hydroxypropylcellulose) (HPC)); 105 % of control (dose: 12.5 mg/kg/injection, schedule: Q01DX005 (ip), vehicle: Klucel (hydroxypropylcellulose) (HPC)); 96 % of control (dose: 25.0 mg/kg/injection, schedule: Q01DX005 (ip), vehicle: Klucel (hydroxypropylcellulose) (HPC)); 92 % of control under setting [1].
`CCN(CC)CCOC(=O)C(C1CCCCC1)C1(O)CCCCCC1` (configuration not stated): the T/C by setting is: under setting [2], 104 % of control; under setting [3], 102 % of control; under setting [4], 95 % of control.
With `CCCCCCCCCCCN(C)C`, the T/C is 105 % of control under setting [2] and 105 % of control under setting [3].
As for `O=C(O)c1cc(N2C(=O)c3ccc4c5ccc6c7c(ccc(c8ccc(c3c48)C2=O)c75)C(=O)N(c2ccc(O)c(C(=O)O)c2)C6=O)ccc1O`, the T/C runs as follows: (dose: 50.0 mg/kg/injection, schedule: Q01DX009 (ip), vehicle: saline) 98 % of control; (dose: 100.0 mg/kg/injection, schedule: Q01DX009 (ip), vehicle: saline) 91 % of control; (dose: 200.0 mg/kg/injection, schedule: Q01DX009 (ip), vehicle: saline) 90 % of control.
On to `CC(SCc1ccccc1)C(N)C(=O)O` (configuration not stated), for which the T/C by setting is: under setting [5], 100 % of control; under setting [6], 103 % of control; (dose: 200.0 mg/kg/injection, schedule: Q01DX009 (ip), vehicle: saline with Tween-80) 91 % of control.
As for `CCCCCCCCCCCCCCCCC1CCCC1C1CCCC1` (configuration not stated), the T/C runs as follows: (dose: 12.5 mg/kg/injection, schedule: Q01DX001 (ip), vehicle: saline with Tween-80) 104 % of control; (dose: 25.0 mg/kg/injection, schedule: Q01DX001 (ip), vehicle: saline with Tween-80) 104 % of control; (dose: 50.0 mg/kg/injection, schedule: Q01DX001 (ip), vehicle: saline with Tween-80) 104 % of control.
With `CN1CC(C2(O)CCN(C)C2=O)C(O)C1=O` (configuration not stated), the T/C is 104 % of control (dose: 100.0 mg/kg/injection, schedule: Q01DX001 (ip), vehicle: saline) and 97 % of control (dose: 200.0 mg/kg/injection, schedule: Q01DX001 (ip), vehicle: saline).
For `Nc1nnc(Cc2ccc(Br)cc2)o1`, the T/C under setting [7] is 98 % of control, the T/C under setting [8] was 97 % of control and the T/C under setting [9] is 100 % of control.
As to `Nc1c(OS(=O)(=O)c2ccccc2)cccc1OS(=O)(=O)c1ccccc1`, the T/C was 91 % of control under setting [5] and 90 % of control under setting [6].
For `CCCCCC(C[N+]1(C)CCOCC1)C(=O)/C=C/c1ccccc1` (configuration not stated), the T/C reads like this: (dose: 12.5 mg/kg/injection, schedule: Q01DX009 (ip), vehicle: saline with Tween-80) 96 % of control; (dose: 12.5 mg/kg/injection, schedule: Q01DX009 (ip), vehicle: saline) 108 % of control; (dose: 25.0 mg/kg/injection, schedule: Q01DX009 (ip), vehicle: saline with Tween-80) 108 % of control; (dose: 25.0 mg/kg/injection, schedule: Q01DX009 (ip), vehicle: saline) 108 % of control.
Regarding `CCCCOC(=O)NC(=O)c1cc2cc(Cl)cc(Cl)c2oc1=O`, the T/C is 90 % of control under setting [2] and 91 % of control under setting [3].
With `O=C(O)CNC(=S)C(=S)NCC(=O)O`, the T/C was 101 % of control under setting [1]; 97 % of control (dose: 100.0 mg/kg/injection, schedule: Q01DX005 (ip), vehicle: Klucel (hydroxypropylcellulose) (HPC)); 90 % of control (dose: 200.0 mg/kg/injection, schedule: Q01DX005 (ip), vehicle: Klucel (hydroxypropylcellulose) (HPC)).
Regarding `CCCCCCCCCCSc1n[nH]c(=S)s1`, the T/C runs as follows: under setting [2], 100 % of control; under setting [3], 100 % of control; under setting [4], 105 % of control.
As for `O=NC1C(=O)NC(=S)NC1=O`, the T/C (dose: 12.5 mg/kg/injection, schedule: Q04DX002 (ip), vehicle: saline with Tween-80) was 100 % of control.
As to `[Cu+2].[O-]/C(=N\N=C\c1ccccn1)c1ccc(Cl)cc1.[O-]/C(=N\N=C\c1ccccn1)c1ccc(Cl)cc1`, the T/C was 90 % of control (dose: 50.0 mg/kg/injection, schedule: Q04DX002 (ip), vehicle: saline with Tween-80); 93 % of control (dose: 100.0 mg/kg/injection, schedule: Q04DX002 (ip), vehicle: saline with Tween-80); 90 % of control (dose: 200.0 mg/kg/injection, schedule: Q04DX002 (ip), vehicle: saline with Tween-80).
As to `COc1c(O)c(OC)c2oc3ccccc3c(=O)c2c1OC`, the T/C (dose: 2.5 mg/kg/injection, schedule: Q01DX009 (ip), vehicle: saline + alcohol) is 100 % of control; the T/C (dose: 5.0 mg/kg/injection, schedule: Q01DX009 (ip), vehicle: saline + alcohol) is 101 % of control; the T/C (dose: 10.0 mg/kg/injection, schedule: Q01DX009 (ip), vehicle: saline + alcohol) is 100 % of control.
Turning to `CCOC(=O)/C=C/c1nc(OCC)c(C)c(C(=O)OCC)n1`, the T/C (dose: 12.5 mg/kg/injection, schedule: Q01DX009 (ip), vehicle: other) is 95 % of control; the T/C (dose: 25.0 mg/kg/injection, schedule: Q01DX009 (ip), vehicle: other) is 102 % of control; the T/C (dose: 50.0 mg/kg/injection, schedule: Q01DX009 (ip), vehicle: other) was 98 % of control; the T/C (dose: 100.0 mg/kg/injection, schedule: Q01DX009 (ip), vehicle: other) was 103 % of control; the T/C (dose: 200.0 mg/kg/injection, schedule: Q01DX009 (ip), vehicle: other) is 90 % of control.
Turning to `CCN(CC)CC[n+]1ccc2c(C)c3[nH]c4ccc(O)cc4c3c(C)c2c1`, the T/C by setting is: (dose: 1.56 mg/kg/injection, schedule: Q04DX003 (ip), vehicle: saline) 167 % of control; (dose: 1.56 mg/kg/injection, schedule: Q04DX003 (ip), vehicle: suspension in saline) 155 % of control; (dose: 1.56 mg/kg/injection, schedule: Q04DX003 (ip), vehicle: water) 156 % of control; (dose: 3.12 mg/kg/injection, schedule: Q04DX003 (ip), vehicle: saline) 155 % of control; (dose: 3.12 mg/kg/injection, schedule: Q04DX003 (ip), vehicle: suspension in saline) 169 % of control; (dose: 3.12 mg/kg/injection, schedule: Q04DX003 (ip), vehicle: water) 161 % of control. The T/C by setting is: (dose: 6.25 mg/kg/injection, schedule: Q04DX003 (ip), vehicle: saline) 180 % of control and 213 % of control; (dose: 6.25 mg/kg/injection, schedule: Q04DX003 (ip), vehicle: suspension in saline) 169 % of control; (dose: 6.25 mg/kg/injection, schedule: Q04DX003 (ip), vehicle: water) 166 % of control; (dose: 12.5 mg/kg/injection, schedule: Q04DX003 (ip), vehicle: saline) 174 % of control and 177 % of control; (dose: 12.5 mg/kg/injection, schedule: Q04DX003 (ip), vehicle: suspension in saline) 226 % of control; (dose: 12.5 mg/kg/injection, schedule: Q04DX003 (ip), vehicle: water) 181 % of control. The T/C is, setting by setting: (dose: 25.0 mg/kg/injection, schedule: Q04DX003 (ip), vehicle: saline) 194 % of control and 210 % of control; (dose: 25.0 mg/kg/injection, schedule: Q04DX003 (ip), vehicle: suspension in saline) 164 % of control; (dose: 50.0 mg/kg/injection, schedule: Q04DX003 (ip), vehicle: saline) 178 % of control and 203 % of control; (dose: 50.0 mg/kg/injection, schedule: Q04DX003 (ip), vehicle: suspension in saline) 180 % of control.
For the compound `CCN(Cc1ccccc1)C(=O)Nc1c(Cl)cccc1Cl`, the T/C reads like this: under setting [7], 92 % of control; under setting [8], 95 % of control; under setting [9], 86 % of control.
As to `O=[N+]([O-])c1ccc(N/N=C\c2c(Cl)n(-c3ccccc3)c3ccccc23)cc1`, the T/C reads like this: (dose: 100.0 mg/kg/injection, schedule: Q04DX003 (ip), vehicle: saline with Tween-80) 93 % of control; (dose: 200.0 mg/kg/injection, schedule: Q04DX003 (ip), vehicle: saline with Tween-80) 90 % of control; (dose: 400.0 mg/kg/injection, schedule: Q01DX001 (ip), vehicle: saline) 95 % of control; (dose: 400.0 mg/kg/injection, schedule: Q04DX003 (ip), vehicle: saline with Tween-80) 91 % of control.
